Source: PubChem BioAssay AID743339 (Broad Institute, 2014)
Activity calls are given as the source filed them.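 Rule for the calls: active = activation curve crossing 200% at or below the highest valid dose tested for that sample; inconclusive = flat curve with activation between 30 and 70%, or poor fit; inactive = the rest, including signal falling instead of rising.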

The compounds below were run against Leucyl-cystinyl aminopeptidase (Mus musculus) (UniProt Q8C129) (assay: IRAP activators, dose response, selectivity assay for ERAP1 modulator project, biochemical, Leu-AMC fluorescence, cherry-picked samples (AID 743339)). Settings: purified IRAP, Leu-AMC cleavage fluorescence, 1 h.
Chain of Leucyl-cystinyl aminopeptidase (Mus musculus) (Q8C129 whole entry, looked up): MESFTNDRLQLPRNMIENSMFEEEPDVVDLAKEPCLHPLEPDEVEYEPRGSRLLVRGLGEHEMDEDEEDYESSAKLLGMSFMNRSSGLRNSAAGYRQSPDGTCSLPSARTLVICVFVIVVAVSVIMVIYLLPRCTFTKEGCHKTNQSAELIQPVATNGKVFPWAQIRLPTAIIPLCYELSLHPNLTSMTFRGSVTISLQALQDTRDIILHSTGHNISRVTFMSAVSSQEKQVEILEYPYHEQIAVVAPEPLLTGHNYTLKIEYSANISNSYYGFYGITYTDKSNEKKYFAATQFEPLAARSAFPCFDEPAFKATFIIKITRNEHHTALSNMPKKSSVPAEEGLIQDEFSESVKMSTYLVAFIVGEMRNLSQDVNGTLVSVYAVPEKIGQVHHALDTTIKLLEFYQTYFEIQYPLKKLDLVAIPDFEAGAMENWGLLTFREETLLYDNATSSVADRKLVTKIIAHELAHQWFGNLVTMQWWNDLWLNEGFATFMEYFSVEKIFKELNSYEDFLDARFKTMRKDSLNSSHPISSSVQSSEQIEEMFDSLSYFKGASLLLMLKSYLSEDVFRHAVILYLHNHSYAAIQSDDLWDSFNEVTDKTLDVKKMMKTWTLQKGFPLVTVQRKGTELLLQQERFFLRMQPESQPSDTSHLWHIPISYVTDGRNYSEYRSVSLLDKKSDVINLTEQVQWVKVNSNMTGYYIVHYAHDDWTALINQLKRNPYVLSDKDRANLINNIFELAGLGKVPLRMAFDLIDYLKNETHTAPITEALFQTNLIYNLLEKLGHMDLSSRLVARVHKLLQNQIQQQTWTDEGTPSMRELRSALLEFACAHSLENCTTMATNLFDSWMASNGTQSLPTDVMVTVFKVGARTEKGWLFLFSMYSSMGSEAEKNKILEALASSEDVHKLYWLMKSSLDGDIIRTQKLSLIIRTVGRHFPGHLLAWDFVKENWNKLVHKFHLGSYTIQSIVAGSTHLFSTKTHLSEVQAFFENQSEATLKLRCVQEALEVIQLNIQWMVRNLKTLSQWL

Compound | AC200
O=c1ccc2cc(O)c(O)cc2o1 | 2120 nM
Cc1cc(=O)oc2cc(NS(=O)(=O)c3ccc(F)cc3)ccc12 | 998 nM
Cc1c(C)c2ccc(O)c(CN3CCN(C)CC3)c2oc1=O | 1510 nM
Cc1ccc(S(=O)(=O)c2cc3ccc(O)cc3oc2=O)cc1C | 362 nM
Cc1cc(=O)oc2c(CN3CCN(C)CC3)c(O)c(Cl)cc12 | 634 nM
COC(=O)Cc1c(C)c2ccc(O)c(CNCc3ccc(OC)c(OC)c3)c2oc1=O | 535 nM
O=C(NCc1ccccn1)[C@@H]1[C@@H](CO)[C@@H]2Cn3c(ccc(/C=C/c4ccccc4)c3=O)[C@H]1N2CC1CC1 | 1030 nM
O=C(NCC1CC1)[C@H]1[C@H](CO)[C@H]2Cn3c(ccc(/C=C/c4ccccc4)c3=O)[C@@H]1N2C(=O)C1CC1 | 927 nM
O=c1oc2cc(O)ccc2cc1S(=O)(=O)c1ccccc1 | 351 nM
CN1CCCC1CCNc1ccc2c(=O)c3ccccc3oc2c1 (stereo unspecified) | 555 nM
COc1cc2ccc(=O)oc2cc1O | 348 nM
Cc1c(CC(=O)N2CCN(C(=O)C3COc4ccccc4O3)CC2)c(=O)oc2cc(O)c(Cl)cc12 (stereo unspecified) | 661 nM
COc1ccc(-c2cc3ccc(O)cc3oc2=O)cc1 | 398 nM
COC(=O)[C@@H]1[C@@H](CO)[C@@H]2Cn3c(ccc(/C=C/c4ccccc4)c3=O)[C@H]1N2C(=O)C1CCC1 | 1080 nM
Cc1cc(=O)oc2c(CN3CCCC3)c(O)c(Cl)cc12 | 673 nM
N#Cc1c(N)n(CCNC(=O)c2ccccc2)c2nc3ccccc3nc12 | > 2600 nM (inactive)

Compound | AC200
O=c1ccc2cc(O[C@@H]3O[C@H](CO)[C@@H](O)[C@H](O)[C@H]3O)c(O)cc2o1 | 307 nM
CCc1c(C)c2cc(Cl)c(O)c(CN(C)C)c2oc1=O | 471 nM
CC(=O)N1[C@@H]2c3ccc(/C=C/c4ccccc4)c(=O)n3C[C@H]1[C@H](CO)[C@H]2C(=O)N1CCOCC1 | 1100 nM
CCNC(=O)[C@@H]1[C@@H](CO)[C@@H]2Cn3c(ccc(/C=C/c4ccccc4)c3=O)[C@H]1N2C(=O)C1CCCC1 | 824 nM
CCCN1[C@@H]2c3ccc(/C=C/c4ccccc4)c(=O)n3C[C@H]1[C@H](CO)[C@H]2C(=O)NCc1ccccn1 | 1000 nM
CCc1cc(=O)oc2c(CN3CCN(C)CC3)c(O)ccc12 | 1540 nM
CCN1[C@@H]2c3ccc(/C=C/c4ccccc4)c(=O)n3C[C@H]1[C@H](CO)[C@H]2C(=O)N1CCOCC1 | 2310 nM
O=c1cc(CN2CCOCC2)c2cc(Cl)c(O)cc2o1 | 1100 nM
C/C(=N\NC(=O)CC#N)c1cc2ccc(O)cc2oc1=O | 1080 nM
COCC(=O)N1[C@@H]2c3ccc(/C=C/c4ccccc4)c(=O)n3C[C@H]1[C@H](CO)[C@H]2C(=O)N1CCOCC1 | 684 nM
CCN(CC)c1ccc2c(C)c(Cl)c(=O)oc2c1 | 964 nM
CN1[C@@H]2Cn3c(ccc(/C=C/c4ccccc4)c3=O)[C@H]1[C@@H](C(=O)NC1CCCC1)[C@@H]2CO | 983 nM
CCNC(=O)[C@H]1[C@H](CO)[C@H]2Cn3c(ccc(/C=C/c4ccccc4)c3=O)[C@@H]1N2C(=O)C1CCCC1 | 675 nM
CCN(CC)Cc1c(O)c(Cl)cc2c(C)cc(=O)oc12 | 620 nM
Cc1c(O)ccc2c(CN3CCN(Cc4ccccc4)CC3)cc(=O)oc12 | > 2600 nM (inactive)

Same assay, conditions: purified IRAP, Leu-AMC cleavage fluorescence, 1 h; at 2.6 µM (top of the series)

Compound | activation
C[C@@H]1CCCCO[C@@H](CN(C)C(=O)CCC(F)(F)F)[C@@H](C)CN([C@@H](C)CO)C(=O)c2cc(NS(=O)(=O)c3ccccc3)ccc2O1 | 11.6% (inactive)
COc1cc2cc(C(=O)N3CCN(Cc4ccc5c(c4)OCO5)CC3)c(=O)oc2cc1OC | 150% (inactive)

Same assay, conditions: purified IRAP, Leu-AMC cleavage fluorescence, 1 h; at 5.6 µM (top of the series)

Compound | activation
C[C@@H]1CCCCO[C@@H](CN(C)Cc2ccc3c(c2)OCO3)[C@@H](C)CN([C@@H](C)CO)C(=O)c2cc(NS(=O)(=O)c3ccccc3)ccc2O1 | 7.88% (inactive)
COc1ccc(S(=O)(=O)N(C)C[C@@H]2Oc3ncccc3C(=O)N([C@H](C)CO)C[C@@H]2C)cc1 | 9.5% (inactive)

Same assay, conditions: purified IRAP, Leu-AMC cleavage fluorescence, 1 h; at 10 µM (top of the series)

Compound | activation
C[C@@H]1CCCCO[C@@H](CN(C)C)[C@H](C)CN([C@@H](C)CO)C(=O)c2cc(NC(=O)Nc3ccc(C(F)(F)F)cc3)ccc2O1 | -1.06% (inactive)
CCCN(C)C[C@@H]1OCCCC[C@@H](C)Oc2ccc(NS(=O)(=O)c3ccc(C)cc3)cc2C(=O)N([C@H](C)CO)C[C@@H]1C | -8.1% (inactive)

Same assay, conditions: purified IRAP, Leu-AMC cleavage fluorescence, 1 h; at 11 µM (top of the series)

Compound | activation
COc1ccc(CN(C)C[C@@H]2OCCCC[C@@H](C)Oc3ccc(NS(=O)(=O)c4cccs4)cc3C(=O)N([C@H](C)CO)C[C@H]2C)cc1 | 3.48% (inactive)
COc1ccc(CN(C)C[C@@H]2OCCCC[C@@H](C)Oc3ccc(NS(=O)(=O)c4c(C)noc4C)cc3C(=O)N([C@@H](C)CO)C[C@@H]2C)cc1 | -18.2% (inactive)
C[C@@H]1CCCCO[C@@H](CN(C)CC2CCCCC2)[C@H](C)CN([C@@H](C)CO)C(=O)c2cc(NC(=O)Nc3ccccc3)ccc2O1 | -13.9% (inactive)
C[C@H](CO)N1C[C@H](C)[C@@H](CN(C)CC2CC2)Oc2c(NC(=O)Nc3ccc(C(F)(F)F)cc3)cccc2C1=O | -14.9% (inactive)
CCC(=O)N(C)C[C@@H]1Oc2ncc(C#Cc3ccncc3)cc2C(=O)N([C@@H](C)CO)C[C@@H]1C | 2.82% (inactive)
C[C@@H]1CCCCO[C@@H](CN(C)CC2CC2)[C@@H](C)CN([C@H](C)CO)C(=O)c2cc(NS(=O)(=O)c3ccc(Cl)cc3)ccc2O1 | -6.39% (inactive)
Cc1noc(C)c1NC(=O)Nc1ccc2c(c1)C(=O)N([C@H](C)CO)C[C@@H](C)[C@@H](CN(C)Cc1ccc(C(F)(F)F)cc1)OCCCC[C@@H](C)O2 | -4.93% (inactive)
COc1ccc(CN(C)C[C@@H]2OCCCC[C@@H](C)Oc3ccc(NS(=O)(=O)c4cccs4)cc3C(=O)N([C@H](C)CO)C[C@@H]2C)cc1 | 3.66% (inactive)
C[C@@H]1CCCCO[C@@H](CN(C)Cc2ccc3c(c2)OCO3)[C@@H](C)CN([C@H](C)CO)C(=O)c2cc(NS(=O)(=O)c3cccs3)ccc2O1 | -8.52% (inactive)
CO[C@@H]1CN(C)C(=O)c2ccc(NC(=O)Nc3cccc(Cl)c3)cc2OC[C@@H](C)NC[C@H]1C | 15.1% (inactive)
C[C@@H]1CCCCO[C@H](CN(C)Cc2ccc(C(=O)O)cc2)[C@H](C)CN([C@@H](C)CO)C(=O)c2cc(NC(=O)Nc3ccc(C(F)(F)F)cc3)ccc2O1 | 11.1% (inactive)
CCCN(C)C[C@@H]1OCCCC[C@H](C)Oc2ccc(NC(=O)Nc3ccc(F)cc3)cc2C(=O)N([C@H](C)CO)C[C@@H]1C | -36.2% (inactive)
COc1ccc(NC(=O)Nc2ccc3c(c2)C(=O)N([C@H](C)CO)C[C@@H](C)[C@H](CN(C)Cc2ccc(C(=O)O)cc2)OCCCC[C@@H](C)O3)cc1 | 10% (inactive)
COc1ccc(CN(C)C[C@@H]2OCCCC[C@H](C)Oc3ccc(NS(=O)(=O)c4cccs4)cc3C(=O)N([C@H](C)CO)C[C@@H]2C)cc1 | -13.3% (inactive)
Cc1ccccc1-c1ccc2c(c1)O[C@@H](CN(C)Cc1ccc(C(=O)O)cc1)[C@@H](C)CN([C@@H](C)CO)S2(=O)=O | 4.16% (inactive)
Cc1ccccc1-c1ccc2c(c1)O[C@@H](CN(C)Cc1ccc(C(=O)O)cc1)[C@@H](C)CN([C@H](C)CO)S2(=O)=O | 3.78% (inactive)
C[C@@H]1CN([C@H](C)CO)C(=O)c2cccc(NC(=O)Nc3ccccc3)c2O[C@@H]1CN(C)Cc1ccc(C(=O)O)cc1 | 17.7% (inactive)

Compound | activation
CCCN(C)C[C@@H]1OCCCC[C@@H](C)Oc2ccc(NS(=O)(=O)c3ccc(F)cc3)cc2C(=O)N([C@H](C)CO)C[C@@H]1C | -17.1% (inactive)
C[C@@H]1CN([C@H](C)CO)C(=O)c2cc(NC(=O)Nc3ccc(F)cc3)ccc2O[C@H]1CN(C)Cc1ccc(C(=O)O)cc1 | 1.25% (inactive)
N#Cc1c(N2CCNCC2)nc(-c2ccco2)c2c1CCCC2 | 56.4% (inactive)
COc1ccc(S(=O)(=O)Nc2ccc3c(c2)C(=O)N([C@@H](C)CO)C[C@H](C)[C@H](CN(C)C)OCCCC[C@@H](C)O3)cc1 | -2.35% (inactive)
C[C@H]1CN([C@@H](C)CO)C(=O)c2cccc(NC(=O)Nc3ccc4c(c3)OCO4)c2O[C@@H]1CN(C)CC1CC1 | -1.26% (inactive)
C[C@@H]1CCCCO[C@H](CN(C)C)[C@H](C)CN([C@H](C)CO)C(=O)c2cc(NS(=O)(=O)c3ccc(Cl)cc3)ccc2O1 | 8.36% (inactive)
C[C@H](CO)N1C[C@H](C)[C@H](CN(C)Cc2ccncc2)Oc2c(NC(=O)Nc3ccc(C(F)(F)F)cc3)cccc2C1=O | 10.6% (inactive)
C[C@H](CO)N1C[C@H](C)[C@H](CN(C)CC2CCCCC2)Oc2c(NC(=O)Nc3ccc4c(c3)OCO4)cccc2C1=O | -3.26% (inactive)
COc1ccc(CN(C)C[C@H]2OCCCC[C@@H](C)Oc3ccc(NS(=O)(=O)c4cccs4)cc3C(=O)N([C@H](C)CO)C[C@H]2C)cc1 | 10% (inactive)
COc1ccc(CN(C)C[C@H]2OCCCC[C@@H](C)Oc3ccc(NS(=O)(=O)c4cccs4)cc3C(=O)N([C@@H](C)CO)C[C@@H]2C)cc1 | 24.3% (inactive)
C[C@@H]1CCCCO[C@@H](CN(C)CC2CC2)[C@@H](C)CN([C@H](C)CO)C(=O)c2cc(NS(=O)(=O)c3cccs3)ccc2O1 | 11.9% (inactive)
C[C@H]1CN([C@@H](C)CO)C(=O)c2cccc(NC(=O)Nc3ccc(C(F)(F)F)cc3)c2O[C@@H]1CN(C)C | -7.32% (inactive)
CCCNC(=O)C[C@H]1CC[C@@H]2[C@H](COC[C@H](O)CN2C(=O)Nc2cccc(Cl)c2)O1 | 24.9% (inactive)
COc1cccc(S(=O)(=O)N(C)C[C@@H]2Oc3ncccc3C(=O)N([C@H](C)CO)C[C@@H]2C)c1 | 79.6% (inactive)
O=C(C[C@H]1CC[C@H]2[C@@H](COC[C@@H](O)CN2C(=O)Nc2cccc(Cl)c2)O1)N1CCCCC1 | 16.9% (inactive)
C[C@@H]1CCCCO[C@@H](CN(C)Cc2ccc(C(=O)O)cc2)[C@H](C)CN([C@@H](C)CO)C(=O)c2cc(NS(=O)(=O)c3ccc(Cl)cc3)ccc2O1 | -3.97% (inactive)
C[C@@H]1CCCCO[C@H](CN(C)Cc2ccccc2)[C@H](C)CN([C@H](C)CO)C(=O)c2cc(NS(=O)(=O)c3ccccc3)ccc2O1 | -9.37% (inactive)
